Experimental data: paper PMC4512239 (Clinical cancer research : an official journal of the …, 2015)
Entries after “also recorded” stand apart in the source; their conditions may differ.

Assay: phase I safety and tolerability
Format: in vivo, human

CNC(=O)c1cccc(-c2ccc3c(N4CCOC[C@@H]4C)nc(N4CCOC[C@@H]4C)nc3n2)c1 [AZD2014]
Fatigue, Any grade (Part A 70mg BD solution (N=5)): 3 (60.0) Number (%) of patients
Fatigue, CTCAE grade 1-2 (Part A 70mg BD solution (N=5)): 2 (40.0) Number (%) of patients
Hypokalemia, Any grade (Part A 70mg BD solution (N=5)): 1 (20.0) Number (%) of patients
Hypokalemia, CTCAE grade 1-2 (Part A 70mg BD solution (N=5)): 1 (20.0) Number (%) of patients
Hypokalemia, CTCAE grade >=3 (Part A 70mg BD solution (N=5)): 0 Number (%) of patients
Lower respiratory tract infection, Any grade (Part A 70mg BD solution (N=5)): 1 (20.0) Number (%) of patients
Lower respiratory tract infection, CTCAE grade 1-2 (Part A 70mg BD solution (N=5)): 1 (20.0) Number (%) of patients
Lower respiratory tract infection, CTCAE grade >=3 (Part A 70mg BD solution (N=5)): 0 Number (%) of patients
Mucositis, Any grade (Part A 70mg BD solution (N=5)): 5 (100.0) Number (%) of patients
Mucositis, CTCAE grade 1-2 (Part A 70mg BD solution (N=5)): 3 (60.0) Number (%) of patients
Mucositis, CTCAE grade >=3 (Part A 70mg BD solution (N=5)): 2 (40.0) Number (%) of patients
Nausea, Any grade (Part A 70mg BD solution (N=5)): 3 (60.0) Number (%) of patients
Nausea, CTCAE grade 1-2 (Part A 70mg BD solution (N=5)): 3 (60.0) Number (%) of patients
Nausea, CTCAE grade >=3 (Part A 70mg BD solution (N=5)): 0 Number (%) of patients
Pruritus, Any grade (Part A 70mg BD solution (N=5)): 0 Number (%) of patients
Pruritus, CTCAE grade 1-2 (Part A 70mg BD solution (N=5)): 0 Number (%) of patients
Pruritus, CTCAE grade >=3 (Part A 70mg BD solution (N=5)): 0 Number (%) of patients
Rash, Any grade (Part A 70mg BD solution (N=5)): 1 (20.0) Number (%) of patients
Rash, CTCAE grade 1-2 (Part A 70mg BD solution (N=5)): 0 Number (%) of patients
Rash, CTCAE grade >=3 (Part A 70mg BD solution (N=5)): 1 (20.0) Number (%) of patients
Vomiting, Any grade (Part A 70mg BD solution (N=5)): 0 Number (%) of patients
Vomiting, CTCAE grade 1-2 (Part A 70mg BD solution (N=5)): 0 Number (%) of patients
Vomiting, CTCAE grade >=3 (Part A 70mg BD solution (N=5)): 0 Number (%) of patients
Anemia, Any grade (Part A 100mg BD solution (N=4)): 1 (25.0) Number (%) of patients
Anemia, CTCAE grade 1-2 (Part A 100mg BD solution (N=4)): 0 Number (%) of patients
Anemia, CTCAE grade >=3 (Part A 100mg BD solution (N=4)): 1 (25.0) Number (%) of patients
Back pain, Any grade (Part A 100mg BD solution (N=4)): 2 (50.0) Number (%) of patients
Back pain, CTCAE grade 1-2 (Part A 100mg BD solution (N=4)): 2 (50.0) Number (%) of patients
Back pain, CTCAE grade >=3 (Part A 100mg BD solution (N=4)): 0 Number (%) of patients
Constipation, Any grade (Part A 100mg BD solution (N=4)): 1 (25.0) Number (%) of patients
Constipation, CTCAE grade 1-2 (Part A 100mg BD solution (N=4)): 1 (25.0) Number (%) of patients
Constipation, CTCAE grade >=3 (Part A 100mg BD solution (N=4)): 0 Number (%) of patients
Cough, Any grade (Part A 100mg BD solution (N=4)): 0 Number (%) of patients
Cough, CTCAE grade 1-2 (Part A 100mg BD solution (N=4)): 0 Number (%) of patients
Cough, CTCAE grade >=3 (Part A 100mg BD solution (N=4)): 0 Number (%) of patients
Decreased appetite, Any grade (Part A 100mg BD solution (N=4)): 4 (100.0) Number (%) of patients
Decreased appetite, CTCAE grade 1-2 (Part A 100mg BD solution (N=4)): 4 (100.0) Number (%) of patients
Decreased appetite, CTCAE grade >=3 (Part A 100mg BD solution (N=4)): 0 Number (%) of patients
Diarrhea, Any grade (Part A 100mg BD solution (N=4)): 1 (25.0) Number (%) of patients
Diarrhea, CTCAE grade 1-2 (Part A 100mg BD solution (N=4)): 1 (25.0) Number (%) of patients
Diarrhea, CTCAE grade >=3 (Part A 100mg BD solution (N=4)): 0 Number (%) of patients
Dry mouth, Any grade (Part A 100mg BD solution (N=4)): 1 (25.0) Number (%) of patients
Dry mouth, CTCAE grade 1-2 (Part A 100mg BD solution (N=4)): 1 (25.0) Number (%) of patients
Dry mouth, CTCAE grade >=3 (Part A 100mg BD solution (N=4)): 0 Number (%) of patients
Dyspnea, Any grade (Part A 100mg BD solution (N=4)): 2 (50.0) Number (%) of patients
Dyspnea, CTCAE grade 1-2 (Part A 100mg BD solution (N=4)): 2 (50.0) Number (%) of patients
Dyspnea, CTCAE grade >=3 (Part A 100mg BD solution (N=4)): 0 Number (%) of patients
Fatigue, Any grade (Part A 100mg BD solution (N=4)): 4(100.0) Number (%) of patients
Fatigue, CTCAE grade 1-2 (Part A 100mg BD solution (N=4)): 2 (50.0) Number (%) of patients
Fatigue, CTCAE grade >=3 (Part A 100mg BD solution (N=4)): 2 (50.0) Number (%) of patients
Hypokalemia, Any grade (Part A 100mg BD solution (N=4)): 0 Number (%) of patients
Hypokalemia, CTCAE grade 1-2 (Part A 100mg BD solution (N=4)): 0 Number (%) of patients
Hypokalemia, CTCAE grade >=3 (Part A 100mg BD solution (N=4)): 0 Number (%) of patients
Lower respiratory tract infection, Any grade (Part A 100mg BD solution (N=4)): 0 Number (%) of patients
Lower respiratory tract infection, CTCAE grade 1-2 (Part A 100mg BD solution (N=4)): 0 Number (%) of patients
Lower respiratory tract infection, CTCAE grade >=3 (Part A 100mg BD solution (N=4)): 0 Number (%) of patients
Mucositis, Any grade (Part A 100mg BD solution (N=4)): 3 (75.0) Number (%) of patients
Mucositis, CTCAE grade 1-2 (Part A 100mg BD solution (N=4)): 3 (75.0) Number (%) of patients
Mucositis, CTCAE grade >=3 (Part A 100mg BD solution (N=4)): 0 Number (%) of patients
Nausea, Any grade (Part A 100mg BD solution (N=4)): 4 (100.0) Number (%) of patients
Nausea, CTCAE grade 1-2 (Part A 100mg BD solution (N=4)): 4 (100.0) Number (%) of patients
Nausea, CTCAE grade >=3 (Part A 100mg BD solution (N=4)): 0 Number (%) of patients
Pruritus, Any grade (Part A 100mg BD solution (N=4)): 0 Number (%) of patients
Pruritus, CTCAE grade 1-2 (Part A 100mg BD solution (N=4)): 0 Number (%) of patients
Pruritus, CTCAE grade >=3 (Part A 100mg BD solution (N=4)): 0 Number (%) of patients
Rash, Any grade (Part A 100mg BD solution (N=4)): 0 Number (%) of patients
Rash, CTCAE grade 1-2 (Part A 100mg BD solution (N=4)): 0 Number (%) of patients
Rash, CTCAE grade >=3 (Part A 100mg BD solution (N=4)): 0 Number (%) of patients
Vomiting, Any grade (Part A 100mg BD solution (N=4)): 4 (100.0) Number (%) of patients
Vomiting, CTCAE grade 1-2 (Part A 100mg BD solution (N=4)): 4 (100.0) Number (%) of patients
Vomiting, CTCAE grade >=3 (Part A 100mg BD solution (N=4)): 0 Number (%) of patients
grade 3 or 4 hyperglycemia (RP2D of 50 mg BD): no grade 3 or 4 hyperglycemia was seen
fatigue, most common AEs (at the MTD (50 mg BD)): 78%
fatigue, nausea and mucositis equal to or greater than grade 3, patients (at the MTD (50 mg BD)): 5%
nature of the dose limiting toxicities (dose range 25-100 mg): fatigue and mucositis
recommended phase II dose (RP2D) (oral, continuous twice daily dosing): 50 mg BD
maximally tolerated dose (MTD) (oral, continuous twice daily dosing, solution): 50 mg BD
pneumonitis (phase I study): no patients were diagnosed with pneumonitis; also recorded: no instances of pneumonitis
Anemia, Any grade (total (N=56)): 9 (16.1) Number (%) of patients
Anemia, CTCAE grade 1-2 (total (N=56)): 7 (12.5) Number (%) of patients
Anemia, CTCAE grade >=3 (total (N=56)): 2 (3.6) Number (%) of patients
Back pain, Any grade (total (N=56)): 9 (16.1) Number (%) of patients
Back pain, CTCAE grade 1-2 (total (N=56)): 8 (14.3) Number (%) of patients
Back pain, CTCAE grade >=3 (total (N=56)): 1 (1.8) Number (%) of patients
Constipation, Any grade (total (N=56)): 16 (28.6) Number (%) of patients
Constipation, CTCAE grade 1-2 (total (N=56)): 16 (28.6) Number (%) of patients
Constipation, CTCAE grade >=3 (total (N=56)): 0 Number (%) of patients
Cough, Any grade (total (N=56)): 12 (21.4) Number (%) of patients
Cough, CTCAE grade 1-2 (total (N=56)): 12 (21.4) Number (%) of patients
Cough, CTCAE grade >=3 (total (N=56)): 0 Number (%) of patients
Decreased appetite, Any grade (total (N=56)): 26 (46.4) Number (%) of patients
Decreased appetite, CTCAE grade 1-2 (total (N=56)): 26 (46.4) Number (%) of patients
Decreased appetite, CTCAE grade >=3 (total (N=56)): 0 Number (%) of patients
Diarrhea, Any grade (total (N=56)): 23 (41.1) Number (%) of patients
Diarrhea, CTCAE grade 1-2 (total (N=56)): 23 (41.1) Number (%) of patients
Diarrhea, CTCAE grade >=3 (total (N=56)): 0 Number (%) of patients
Dry mouth, Any grade (total (N=56)): 10 (17.9) Number (%) of patients
Dry mouth, CTCAE grade 1-2 (total (N=56)): 10 (17.9) Number (%) of patients
Dry mouth, CTCAE grade >=3 (total (N=56)): 0 Number (%) of patients
Dyspnea, Any grade (total (N=56)): 11 (19.6) Number (%) of patients
Dyspnea, CTCAE grade 1-2 (total (N=56)): 9 (16.1) Number (%) of patients
Dyspnea, CTCAE grade >=3 (total (N=56)): 2 (3.6) Number (%) of patients
Fatigue, Any grade (total (N=56)): 42 (75.0) Number (%) of patients
Fatigue, CTCAE grade 1-2 (total (N=56)): 36 (64.3) Number (%) of patients
Fatigue, CTCAE grade >=3 (total (N=56)): 6 (10.7) Number (%) of patients
Hypokalemia, Any grade (total (N=56)): 9 (16.1) Number (%) of patients
Hypokalemia, CTCAE grade 1-2 (total (N=56)): 8 (14.3) Number (%) of patients
Hypokalemia, CTCAE grade >=3 (total (N=56)): 1 (1.8) Number (%) of patients
Lower respiratory tract infection, Any grade (total (N=56)): 9 (16.1) Number (%) of patients
Lower respiratory tract infection, CTCAE grade 1-2 (total (N=56)): 7 (12.5) Number (%) of patients
Lower respiratory tract infection, CTCAE grade >=3 (total (N=56)): 2 (3.6) Number (%) of patients
Mucositis, Any grade (total (N=56)): 30 (53.6) Number (%) of patients
Mucositis, CTCAE grade 1-2 (total (N=56)): 27 (48.2) Number (%) of patients
Mucositis, CTCAE grade >=3 (total (N=56)): 3 (5.4) Number (%) of patients
Nausea, Any grade (total (N=56)): 30 (53.6) Number (%) of patients
Nausea, CTCAE grade 1-2 (total (N=56)): 28 (50.0) Number (%) of patients
Nausea, CTCAE grade >=3 (total (N=56)): 2 (3.6) Number (%) of patients
Pruritus, Any grade (total (N=56)): 13 (23.2) Number (%) of patients
Pruritus, CTCAE grade 1-2 (total (N=56)): 13 (23.2) Number (%) of patients
Pruritus, CTCAE grade >=3 (total (N=56)): 0 Number (%) of patients
Rash, CTCAE grade 1-2 (total (N=56)): 16 (28.6) Number (%) of patients
Rash, CTCAE grade >=3 (total (N=56)): 3 (5.4) Number (%) of patients
Vomiting, Any grade (total (N=56)): 16 (28.6) Number (%) of patients
Vomiting, CTCAE grade 1-2 (total (N=56)): 15 (26.8) Number (%) of patients
Vomiting, CTCAE grade >=3 (total (N=56)): 1 (1.8) Number (%) of patients
